Entries after “also recorded” stand apart in the source; their conditions may differ.
Experiments:
RORγ = target: T1, RORγ (Homo sapiens, UniProt P51449); assay: TR-FRET RORγ coactivator assay (LanthaScreen); settings: RORγ LBD
T1 sequence (P51449 269-508 limits assumed): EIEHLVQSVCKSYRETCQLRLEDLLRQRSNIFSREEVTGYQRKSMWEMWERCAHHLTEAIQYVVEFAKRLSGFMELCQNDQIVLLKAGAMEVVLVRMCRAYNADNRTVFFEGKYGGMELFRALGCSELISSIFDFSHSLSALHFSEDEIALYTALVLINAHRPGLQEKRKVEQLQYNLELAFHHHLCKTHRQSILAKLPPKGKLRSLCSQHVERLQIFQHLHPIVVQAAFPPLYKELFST

[1] = tested on: MC38 mouse colon tumour [MC38小鼠结肠肿瘤]; assay: In vivo efficacy: MC38 colon tumour growth in syngeneic C57BL/6 mice; settings: for TGI (tumour growth inhibition rate): MC38 in C57BL/6 mice

Structure (SMILES)	effect on RORγ in vitro activity (mode of modulation, in words) (RORγ)	also measured
CCc1ccccc1Cc1cc2cc(C(=O)NCc3ccc(S(=O)(=O)CC)cc3)ccc2n1C(C)C [实施例10, 2-(2-(乙基苄基)-N-(4-(乙磺酰基)苄基)-1-异丙基-1H-吲哚-5-甲酰胺]	表现出激动的效果	–
CCS(=O)(=O)c1ccc(CNC(=O)c2ccc3c(c2)cc(Cc2ccc(C(F)(F)F)cc2F)n3C(C)C)cc1 [实施例15, N-(4-(乙磺酰基)苄基)-2-(2-氟-4-(三氟甲基)苄基)-1-异丙基-1H-吲哚-5-甲酰胺]	表现出抑制的效果	–
CCS(=O)(=O)c1ccc(CNC(=O)c2ccc3c(c2)cc(Cc2ccc(Cl)cc2C(F)(F)F)n3CCF)cc1 [实施例30, 2-(4-氯-2-(三氟甲基)苄基)-N-(4-(乙磺酰基)苄基)-1-(2-氟乙基)-1H-吲哚-5-甲酰胺]	–	TGI (tumour growth inhibition rate) ([1]; Example 30 (12.5 mg/kg) combined with anti-mouse PD-1 monoclonal antibody (5 mg/mouse)): 68%; synergy in words ([1]; Example 30 combined with PD-1 antibody, MC38 colon tumour model): 较强的协同效应; also recorded: 较强的协同作用; biological activity in vivo in words (RORγ activation versus inhibition) ([1]; MC38 colon tumour model, conclusion of the applicant): 具有与RORγ激活(而非抑制)一致的生物活性; TGI (tumour growth inhibition rate) ([1]; single agent, 12.5 mg/kg, twice daily, 21 days): 34%; antitumour effect in words ([1]; single agent, MC38 colon tumour model): 表现出抑瘤活性

Now from value to molecule, other results behind:

effect on RORγ in vitro activity (mode of modulation, in words) (RORγ)	Structure (SMILES)	also measured
表现出抑制的效果	CCS(=O)(=O)c1ccc(CNC(=O)c2ccc3c(c2)cc(Cc2ccc(C(F)(F)F)cc2)n3C(C)C)cc1 [实施例14, N-(4-(乙磺酰基)苄基)-1-异丙基-2-(4-(三氟甲基)苄基)-1H-吲哚-5-甲酰胺]	–
表现出抑制的效果	CCS(=O)(=O)c1ccc(CNC(=O)c2ccc3c(c2)cc(Cc2cccc(C(F)(F)F)c2)n3C(C)C)cc1 [实施例17, N-(4-(乙磺酰基)苄基)-1-异丙基-2-(3-(三氟甲基)苄基)-1H-吲哚-5-甲酰胺]	–
表现出抑制的效果	CCS(=O)(=O)c1ccc(CNC(=O)c2ccc3c(c2)cc(Cc2ccc(OC(F)(F)F)cc2)n3C(C)C)cc1 [实施例18, N-(4-(乙磺酰基)苄基)-1-异丙基-2-(4-(三氟甲氧基)苄基)-1H-吲哚-5-甲酰胺]	–
表现出激动的效果	CCS(=O)(=O)c1ccc(CNC(=O)c2ccc3c(c2)cc(Cc2ccc(F)cc2C(F)(F)F)n3C(C)C)cc1 [实施例4, N-(4-(乙磺酰基)苄基)-2-(4-氟-2-(三氟甲基)苄基)-1-异丙基-1H-吲哚-5-甲酰胺]	–
